Tests used:
Assay type in all cases: in vivo, rat
[1] = test system: Dahl rats (salt-sensitive hypertensive rats); test: Combined administration of MR antagonist and angiotensin II receptor antagonist: inhibitory action on blood pressure elevation (Example 1); settings: male Dahl rats, 8% salt diet, oral for 6 weeks, trough on day 42; compound (Ia) 1.0 mg/kg, olmesartan medoxomil 10 mg/kg, alone or combined; mean±standard error
Experimental: Male Dahl rats (DIS/Eis [Dahl-Iwai S], SPF grade, supplier: Japan SLC, Inc., salt-sensitive hypertensive rats) at 7 weeks of age were divided into groups (6 rats per group).
(§1) In a normal group and a control group, 0.5% methyl cellulose solution was orally administered for 6 weeks, and in the other groups, a test substance was orally administered for 6 weeks. The test substance was suspended in 0.5% methyl cellulose solution and administered at a volume of 2 mL/kg. Additionally, in the groups other than the normal group, an 8% salt diet (FR-2 containing 8% NaCl, manufactured by Funabashi Farm Co., Ltd.) was given ad libitum from the start of administration of the test substance. The composition of the groups and the administered test substances [in parentheses] are as follows.
Group 3: compound (Ia) administration group [compound (Ia) (1.0 mg/kg)]
Group 4: olmesartan medoxomil administration group [olmesartan medoxomil (10 mg/kg)]
Group 5: combined administration group [compound (Ia) (1.0 mg/kg)+olmesartan medoxomil (10 mg/kg)]
The results obtained by measuring systolic blood pressure using a noninvasive sphygmomanometer for rats and mice (BP-98A, Softron Co., Ltd.) during the trough period at the 6th week of administration of the test substance (on day 42 from the start of administration of the test substance) are shown in Table 1 (the values in the table represent mean±standard error).

[2] = test system: Dahl rats (salt-sensitive hypertensive rats); test: Combined administration of MR antagonist and diuretic: inhibitory action on proteinuria (Example 3); settings: male Dahl rats, 8% salt diet, oral for 6 weeks, 24-hour urine collection on day 41; compound (Ia) 0.3 mg/kg, hydrochlorothiazide 1 mg/kg, alone or combined; mean±standard error
Experimental: (§2) Male Dahl rats (DIS/Eis [Dahl-Iwai S], SPF grade, supplier: Japan SLC, Inc., salt-sensitive hypertensive rats) at 7 weeks of age were divided into groups (6 or 9 rats per group).
as §1, with “groups,” for “groups and”, “the parentheses], and the number of rats (n) per group” for “parentheses]”, “follows. […]” for “follows.”
(§3) Systolic blood pressure was measured by using a noninvasive sphygmomanometer for rats and mice (BP-98A, Softron Co., Ltd.) during the trough period at the 6th week of administration of the test substance (on day 40 from the start of administration of the test substance). In addition, on day 41 from the start of administration of the test substance, urine collection for 24-hour was performed using a metabolic cage (2100-R, Watanabe Isolator Systems Co., Ltd.), and the daily urinary protein excretion per body weight was calculated.

[3] = test system: Dahl rats (salt-sensitive hypertensive rats); test: Combined administration of MR antagonist and calcium antagonist: inhibitory action on blood pressure elevation (Example 2); settings: male Dahl rats, 8% salt diet, oral for 6 weeks, trough on day 41; compound (Ia) 0.1 mg/kg, amlodipine 1 mg/kg, alone or combined; mean±standard error
Experimental: In a normal group and a control group, 0.5% methyl cellulose solution was orally administered for 6 weeks, and in the other groups, a test substance was orally administered for 6 weeks. The test substance was suspended in 0.5% methyl cellulose solution and administered at a volume of 2 mL/kg. Additionally, in the groups other than the normal group, an 8% salt diet (FR-2 containing 8% NaCl, manufactured by Funabashi Farm Co., Ltd.) was given ad libitum from the start of administration of the test substance. The composition of the groups, the administered test substances [ in parentheses], and the number of rats (n) per group are as follows.
Group 4: amlodipine administration group [amlodipine (1 mg/kg)] n=6

[4] = test system: Dahl rats (salt-sensitive hypertensive rats); test: Combined administration of MR antagonist and diuretic: inhibitory action on blood pressure elevation (Example 3); settings: male Dahl rats, 8% salt diet, oral for 6 weeks, trough on day 40; compound (Ia) 0.3 mg/kg, hydrochlorothiazide 1 mg/kg, alone or combined; mean±standard error
Experimental: as §2
as §1, with “groups,” for “groups and”, “the parentheses], and the number of rats (n) per group” for “parentheses]”, “follows. […]” for “follows.”
as §3

Compound | Systolic blood pressure [1] [mmHg] | Daily urinary protein excretion [2] [mg/kg/day] | Systolic blood pressure [3] [mmHg] | Systolic blood pressure [4] [mmHg]
Cc1c(C(=O)Nc2ccc(S(C)(=O)=O)cc2)cn(CCO)c1-c1ccccc1C(F)(F)F (atropisomer, axis not shown) [compound (Ia), (S)-1-(2-hydroxyethyl)-4-methyl-N-[4-(methylsulfonyl)phenyl]-5-[2-(trifluoromethyl)phenyl]-1H-pyrrole-3-carboxamide] | 170 ± 4 | 190 ± 16 | 207 ± 7 | 196 ± 7
NS(=O)(=O)c1cc2c(cc1Cl)NCNS2(=O)=O [hydrochlorothiazide, 6-chloro-3,4-dihydro-2H-1,2,4-benzothiadiazine-7-sulfonamide 1,1-dioxide, reference compound] |  | 320 ± 65 |  | 212 ± 3

Source: patent US10111858B2, “Pharmaceutical for prophylaxis or treatment of hypertension” (Daiichi Sankyo Company, Limited, priority 2013, dated 2018)
